Experiment: (§1) The drug is tested on Z-014 corresponding to rat gut metagenome with ENA study accession number: PRJEB37062 and ENA sample accession number: ERS12561814 for biotransformation under anaerobic condition. The drug concentrations were measured over 9 timepoints collected between 0 and 24 hours of incubation by liquid-chromatography-coupled mass spectrometry (LC–MS)
Details: 2 µM
Also: call rule not given here.

Row | Bacterial Biotransformation | Compound
1 | Compound metabolized | C#C[C@]1(O)CC[C@H]2[C@@H]3CCC4=CC(=O)CC[C@@H]4[C@H]3CC[C@@]21CC [LEVONORGESTREL]
2 | Compound metabolized | CCCC1O[C@@H]2C[C@H]3[C@@H]4CCC5=CC(=O)C=C[C@]5(C)[C@H]4[C@@H](O)C[C@]3(C)[C@]2(C(=O)CO)O1 (stereo not given in full) [BUDESONIDE]

Details: human gut metagenome, 24 h, 2 µM

Row | Bacterial Biotransformation | Compound
3 | Compound metabolized | C#C[C@]1(O)CC[C@H]2[C@@H]3CCC4=CC(=O)CC[C@@H]4[C@H]3CC[C@@]21CC [LEVONORGESTREL]
4 | Compound metabolized | CCCC1O[C@@H]2C[C@H]3[C@@H]4CCC5=CC(=O)C=C[C@]5(C)[C@H]4[C@@H](O)C[C@]3(C)[C@]2(C(=O)CO)O1 (stereo not given in full) [BUDESONIDE]

Experiment: as §1, with “on WLS-220” for “on Z-014”, “to human” for “to rat”, “number: ERS12561769” for “number: ERS12561814”
Details: 2 µM

Row | Bacterial Biotransformation | Compound
5 | Compound metabolized | C#C[C@]1(O)CC[C@H]2[C@@H]3CCC4=CC(=O)CC[C@@H]4[C@H]3CC[C@@]21CC [LEVONORGESTREL]
6 | Compound metabolized | CCCC1O[C@@H]2C[C@H]3[C@@H]4CCC5=CC(=O)C=C[C@]5(C)[C@H]4[C@@H](O)C[C@]3(C)[C@]2(C(=O)CO)O1 (stereo not given in full) [BUDESONIDE]

Experiment: as §1, with “on Z-017” for “on Z-014”, “to mouse” for “to rat”, “number: ERS12561816” for “number: ERS12561814”
Details: 2 µM

Row | Bacterial Biotransformation | Compound
7 | Compound metabolized | C#C[C@]1(O)CC[C@H]2[C@@H]3CCC4=CC(=O)CC[C@@H]4[C@H]3CC[C@@]21CC [LEVONORGESTREL]
8 | Compound metabolized | CCCC1O[C@@H]2C[C@H]3[C@@H]4CCC5=CC(=O)C=C[C@]5(C)[C@H]4[C@@H](O)C[C@]3(C)[C@]2(C(=O)CO)O1 (stereo not given in full) [BUDESONIDE]

Experiment: as §1, with “on WLS-073” for “on Z-014”, “to human” for “to rat”, “number: ERS12561749” for “number: ERS12561814”
Details: 2 µM

Row | Bacterial Biotransformation | Compound
9 | Compound NOT metabolized | C#C[C@]1(O)CC[C@H]2[C@@H]3CCC4=CC(=O)CC[C@@H]4[C@H]3CC[C@@]21CC [LEVONORGESTREL]
10 | Compound NOT metabolized | CCCC1O[C@@H]2C[C@H]3[C@@H]4CCC5=CC(=O)C=C[C@]5(C)[C@H]4[C@@H](O)C[C@]3(C)[C@]2(C(=O)CO)O1 (stereo not given in full) [BUDESONIDE]

Details: human gut metagenome, 24 h, 2 µM
Remark: another data set of the same source

Row | Bacterial Biotransformation | Compound
11 | Compound metabolized | C#C[C@]1(O)CC[C@H]2[C@@H]3CCC4=CC(=O)CC[C@@H]4[C@H]3CC[C@@]21CC [LEVONORGESTREL]
12 | Compound metabolized | CCCC1O[C@@H]2C[C@H]3[C@@H]4CCC5=CC(=O)C=C[C@]5(C)[C@H]4[C@@H](O)C[C@]3(C)[C@]2(C(=O)CO)O1 (stereo not given in full) [BUDESONIDE]

Details: human gut metagenome, 24 h, 2 µM
Remark: another data set of the same source

Row | Bacterial Biotransformation | Compound
13 | Compound metabolized | C#C[C@]1(O)CC[C@H]2[C@@H]3CCC4=CC(=O)CC[C@@H]4[C@H]3CC[C@@]21CC [LEVONORGESTREL]
14 | Compound metabolized | CCCC1O[C@@H]2C[C@H]3[C@@H]4CCC5=CC(=O)C=C[C@]5(C)[C@H]4[C@@H](O)C[C@]3(C)[C@]2(C(=O)CO)O1 (stereo not given in full) [BUDESONIDE]

Details: human gut metagenome, 24 h, 2 µM
Remark: another data set of the same source

Row | Bacterial Biotransformation | Compound
15 | Compound metabolized | CCCC1O[C@@H]2C[C@H]3[C@@H]4CCC5=CC(=O)C=C[C@]5(C)[C@H]4[C@@H](O)C[C@]3(C)[C@]2(C(=O)CO)O1 (stereo not given in full) [BUDESONIDE]

Experiment: as §1, with “on WLS-310” for “on Z-014”, “to human” for “to rat”, “number: ERS12561785” for “number: ERS12561814”
Details: 2 µM

Row | Bacterial Biotransformation | Compound
16 | Compound metabolized | C#C[C@]1(O)CC[C@H]2[C@@H]3CCC4=CC(=O)CC[C@@H]4[C@H]3CC[C@@]21CC [LEVONORGESTREL]
17 | Compound metabolized | CCCC1O[C@@H]2C[C@H]3[C@@H]4CCC5=CC(=O)C=C[C@]5(C)[C@H]4[C@@H](O)C[C@]3(C)[C@]2(C(=O)CO)O1 (stereo not given in full) [BUDESONIDE]

Details: human gut metagenome, 24 h, 2 µM
Remark: another data set of the same source

Row | Bacterial Biotransformation | Compound
18 | Compound NOT metabolized | C#C[C@]1(O)CC[C@H]2[C@@H]3CCC4=CC(=O)CC[C@@H]4[C@H]3CC[C@@]21CC [LEVONORGESTREL]
19 | Compound metabolized | CCCC1O[C@@H]2C[C@H]3[C@@H]4CCC5=CC(=O)C=C[C@]5(C)[C@H]4[C@@H](O)C[C@]3(C)[C@]2(C(=O)CO)O1 (stereo not given in full) [BUDESONIDE]

Experiment: as §1, with “Z-019” for “Z-014”, “ERS12561818” for “ERS12561814”
Details: 2 µM

Row | Bacterial Biotransformation | Compound
20 | Compound metabolized | C#C[C@]1(O)CC[C@H]2[C@@H]3CCC4=CC(=O)CC[C@@H]4[C@H]3CC[C@@]21CC [LEVONORGESTREL]
21 | Compound NOT metabolized | CCCC1O[C@@H]2C[C@H]3[C@@H]4CCC5=CC(=O)C=C[C@]5(C)[C@H]4[C@@H](O)C[C@]3(C)[C@]2(C(=O)CO)O1 (stereo not given in full) [BUDESONIDE]

Experiment: as §1, with “on WLS-007” for “on Z-014”, “to human” for “to rat”, “number: ERS12561742” for “number: ERS12561814”
Details: 2 µM

Row | Bacterial Biotransformation | Compound
22 | Compound metabolized | C#C[C@]1(O)CC[C@H]2[C@@H]3CCC4=CC(=O)CC[C@@H]4[C@H]3CC[C@@]21CC [LEVONORGESTREL]
23 | Compound metabolized | CCCC1O[C@@H]2C[C@H]3[C@@H]4CCC5=CC(=O)C=C[C@]5(C)[C@H]4[C@@H](O)C[C@]3(C)[C@]2(C(=O)CO)O1 (stereo not given in full) [BUDESONIDE]

Experiment: as §1, with “on Z-013” for “on Z-014”, “to rabbit” for “to rat”, “number: ERS12561813” for “number: ERS12561814”
Details: 2 µM

Row | Bacterial Biotransformation | Compound
24 | Compound metabolized | C#C[C@]1(O)CC[C@H]2[C@@H]3CCC4=CC(=O)CC[C@@H]4[C@H]3CC[C@@]21CC [LEVONORGESTREL]
25 | Compound metabolized | CCCC1O[C@@H]2C[C@H]3[C@@H]4CCC5=CC(=O)C=C[C@]5(C)[C@H]4[C@@H](O)C[C@]3(C)[C@]2(C(=O)CO)O1 (stereo not given in full) [BUDESONIDE]

Experiment: as §1, with “on WLS-038” for “on Z-014”, “to human” for “to rat”, “number: ERS12561745” for “number: ERS12561814”
Details: 2 µM

Row | Bacterial Biotransformation | Compound
26 | Compound metabolized | CCCC1O[C@@H]2C[C@H]3[C@@H]4CCC5=CC(=O)C=C[C@]5(C)[C@H]4[C@@H](O)C[C@]3(C)[C@]2(C(=O)CO)O1 (stereo not given in full) [BUDESONIDE]

Details: human gut metagenome, 24 h, 2 µM
Remark: another data set of the same source

Row | Bacterial Biotransformation | Compound
27 | Compound metabolized | C#C[C@]1(O)CC[C@H]2[C@@H]3CCC4=CC(=O)CC[C@@H]4[C@H]3CC[C@@]21CC [LEVONORGESTREL]
28 | Compound metabolized | CCCC1O[C@@H]2C[C@H]3[C@@H]4CCC5=CC(=O)C=C[C@]5(C)[C@H]4[C@@H](O)C[C@]3(C)[C@]2(C(=O)CO)O1 (stereo not given in full) [BUDESONIDE]

Details: human gut metagenome, 24 h, 2 µM
Remark: another data set of the same source

Row | Bacterial Biotransformation | Compound
29 | Compound metabolized | C#C[C@]1(O)CC[C@H]2[C@@H]3CCC4=CC(=O)CC[C@@H]4[C@H]3CC[C@@]21CC [LEVONORGESTREL]
30 | Compound metabolized | CCCC1O[C@@H]2C[C@H]3[C@@H]4CCC5=CC(=O)C=C[C@]5(C)[C@H]4[C@@H](O)C[C@]3(C)[C@]2(C(=O)CO)O1 (stereo not given in full) [BUDESONIDE]

Details: human gut metagenome, 24 h, 2 µM
Remark: another data set of the same source

Row | Bacterial Biotransformation | Compound
31 | Compound metabolized | C#C[C@]1(O)CC[C@H]2[C@@H]3CCC4=CC(=O)CC[C@@H]4[C@H]3CC[C@@]21CC [LEVONORGESTREL]
32 | Compound metabolized | CCCC1O[C@@H]2C[C@H]3[C@@H]4CCC5=CC(=O)C=C[C@]5(C)[C@H]4[C@@H](O)C[C@]3(C)[C@]2(C(=O)CO)O1 (stereo not given in full) [BUDESONIDE]

Experiment: as §1, with “Z-008” for “Z-014”, “to” for “to rat gut”, “ERS12561808” for “ERS12561814”
Details: 2 µM

Row | Bacterial Biotransformation | Compound
33 | Compound metabolized | CCCC1O[C@@H]2C[C@H]3[C@@H]4CCC5=CC(=O)C=C[C@]5(C)[C@H]4[C@@H](O)C[C@]3(C)[C@]2(C(=O)CO)O1 (stereo not given in full) [BUDESONIDE]

Experiment: as §1, with “on WLS-086” for “on Z-014”, “to human” for “to rat”, “number: ERS12561752” for “number: ERS12561814”
Details: 2 µM

Row | Bacterial Biotransformation | Compound
34 | Compound metabolized | C#C[C@]1(O)CC[C@H]2[C@@H]3CCC4=CC(=O)CC[C@@H]4[C@H]3CC[C@@]21CC [LEVONORGESTREL]
35 | Compound metabolized | CCCC1O[C@@H]2C[C@H]3[C@@H]4CCC5=CC(=O)C=C[C@]5(C)[C@H]4[C@@H](O)C[C@]3(C)[C@]2(C(=O)CO)O1 (stereo not given in full) [BUDESONIDE]
